Consider eight compounds from patent US20250090699A1, “FAP TARGETING CYCLIC PEPTIDES AND CONJUGATES THEREOF” (Novartis AG, priority 2023, published 2025).

Counter-ions that a name gives are not always drawn. Non-standard residues stand in square brackets, D forms with d. Residues, ends and D or L forms follow the SMILES beside them. Trp(7-Cl) = N[C@@H](Cc1c[nH]c2c(Cl)cccc12)C(=O)O; Trp(6-OH) = N[C@@H](Cc1c[nH]c2cc(O)ccc12)C(=O)O; Trp(7-F) = N[C@@H](Cc1c[nH]c2c(F)cccc12)C(=O)O; NMeF = CN[C@@H](Cc1ccccc1)C(=O)O; Ahp(2) = CCCCC[C@H](N)C(=O)O

Experiment [1] deals with T1, mouse FAP (Mus musculus, UniProt P97321).
T1 construct: biotinylated His, Avi tag, mouse FAP (26-761, FAP-M82Q5); His; Avi tag (biotinylated); purchased AcroBiosystems FAP-M82Q5
T1 sequence (P97321 26-761): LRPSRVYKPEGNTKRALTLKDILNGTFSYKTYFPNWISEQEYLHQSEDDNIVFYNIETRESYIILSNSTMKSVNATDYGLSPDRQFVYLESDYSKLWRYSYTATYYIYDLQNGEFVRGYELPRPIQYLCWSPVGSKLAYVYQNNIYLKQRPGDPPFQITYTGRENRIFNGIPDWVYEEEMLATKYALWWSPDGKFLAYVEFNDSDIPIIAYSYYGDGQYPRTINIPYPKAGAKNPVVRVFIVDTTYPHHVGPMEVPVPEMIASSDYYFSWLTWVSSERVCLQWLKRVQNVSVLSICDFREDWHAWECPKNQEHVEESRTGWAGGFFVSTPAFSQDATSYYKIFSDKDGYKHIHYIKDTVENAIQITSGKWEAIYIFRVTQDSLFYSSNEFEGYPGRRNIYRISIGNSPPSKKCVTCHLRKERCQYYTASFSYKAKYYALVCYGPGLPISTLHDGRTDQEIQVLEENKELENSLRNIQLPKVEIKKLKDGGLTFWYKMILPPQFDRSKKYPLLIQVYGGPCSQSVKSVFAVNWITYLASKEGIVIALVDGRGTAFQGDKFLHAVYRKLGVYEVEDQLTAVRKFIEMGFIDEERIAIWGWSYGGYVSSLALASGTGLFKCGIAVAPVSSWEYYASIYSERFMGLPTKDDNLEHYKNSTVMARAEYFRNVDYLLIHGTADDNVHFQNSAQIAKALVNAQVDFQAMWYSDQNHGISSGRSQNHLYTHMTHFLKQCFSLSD
The experiment in a line: Surface plasmon resonance (SPR) for peptide affinity, mouse FAP. In kind it is binding. As for the experimental part:
Peptide affinities (KD) were determined by SPR using a Biacore™ 8K device (Cytiva) towards the following proteins: biotinylated His, Avi tag, human FAP (26-760, FAP-H82Q6), biotinylated His, Avi tag, mouse FAP (26-761, FAP-M82Q5), His tag, human DPP4 (34-766, DP4-H82E3), all purchased from AcroBiosystems and His tag, mouse DPP4 (29-760, 954-SE) from R&D Systems. The FAP proteins and their homologous were diluted to a concentration of 2 μg/mL into acetate buffer pH 5.5, then immobilized onto a CM5 sensorchip (Cytiva, BR-1005-30) to reach a response around 2000 R U. The running buffer HBS-EP+pH 7.6 (20× from Teknova CAT. No: H8022) contained 10 mM HEPES pH 7.6, 150 mM NaCl, 3 mM EDTA, 0.05% Tween20 and 2% DMSO. Experiments were carried out at 25° C. using a flow rate of 30 μL/min. Compounds were tested in single cycle kinetic mode at 8 different concentrations. Curve fitting was performed using the Biacore™ 8K evaluation software. The sensorgrams were fitted by applying a 1:1 binding model to calculate kinetic rate constants and equilibrium dissociation constants (KD).
For this assay, the setup had the same conditions (flow rate, running buffer, peptide dilution) as described above for the CM5 method. The oligo CAP reagent obtained in the CAPture Kit (Ref. 28920234) was 1/5 diluted into running buffer and used with a contact time of 300 s at a flow rate of 2 μL/min. The human and mouse FAP constructs described above were used (from AcroBiosystems or produced in house). The FAP proteins were diluted to a concentration of 2 μg/mL into acetate pH 5.5, 0.05% Tween20 and used with a contact time of 600 s at a flow rate of 10 μL/min. The peptides were tested with an association time of 280 s followed by a dissociation time of 3000 s at a flow rate of 30 μL/min. The regeneration was done using the regeneration solution (8 M guanidine-HCl, 1 M NaOH) as obtained with a contact time of 270 s at a flow rate of 10 μL/min. […] The compounds marked with an asterisk were tested against human and mouse DDP4.
In general terms: In SPR one partner is held on a chip, and binding of the other changes the refractive index at the surface.

A further experiment has as its target T2, human FAP (Homo sapiens, UniProt Q12884).
T2 construct: the biotinylated His, Avi tag, human FAP (26-760, FAP-H82Q6); His; Avi tag (biotinylated); purchased AcroBiosystems FAP-H82Q6
T2 sequence (Q12884 26-760): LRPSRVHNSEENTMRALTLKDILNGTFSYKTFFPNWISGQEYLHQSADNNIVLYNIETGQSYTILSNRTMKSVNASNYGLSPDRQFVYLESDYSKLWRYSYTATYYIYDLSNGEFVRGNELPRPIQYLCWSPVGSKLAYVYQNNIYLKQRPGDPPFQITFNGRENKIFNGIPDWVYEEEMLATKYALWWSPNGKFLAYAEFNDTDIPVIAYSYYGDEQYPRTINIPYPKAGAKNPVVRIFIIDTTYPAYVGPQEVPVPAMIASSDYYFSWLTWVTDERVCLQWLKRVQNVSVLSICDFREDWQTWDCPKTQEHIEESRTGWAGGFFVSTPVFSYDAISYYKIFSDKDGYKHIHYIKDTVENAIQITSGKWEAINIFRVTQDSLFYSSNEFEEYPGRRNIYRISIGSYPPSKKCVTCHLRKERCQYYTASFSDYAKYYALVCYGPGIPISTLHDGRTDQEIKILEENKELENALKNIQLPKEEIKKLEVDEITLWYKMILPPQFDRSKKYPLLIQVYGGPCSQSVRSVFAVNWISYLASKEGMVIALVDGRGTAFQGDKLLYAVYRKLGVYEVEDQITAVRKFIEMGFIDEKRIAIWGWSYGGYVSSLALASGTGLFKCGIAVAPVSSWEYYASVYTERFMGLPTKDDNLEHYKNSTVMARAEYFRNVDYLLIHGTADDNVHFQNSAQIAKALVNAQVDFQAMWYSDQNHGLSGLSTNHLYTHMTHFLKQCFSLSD
The experiment in a line: Enzymatic FAP competition assay (Z-Gly-Pro-AMC fluorescence), human FAP. The format is biochemical. The note with it: read-out: h. FAP, Enz., IC50. How it is done: (§1) Peptide potencies (IC50) to inhibit the FAP enzymatic activity were determined using a fluorescence-based assay towards the biotinylated His, Avi tag, human FAP (26-760, FAP-H82Q6) and the biotinylated His, Avi tag, mouse FAP (26-761, FAP-M82Q5). Standard assay conditions consisted of 20 μL total volume in white 384-well plates (Greiner, Ref. 784075), in 50 mM phosphate buffer pH 7.5 containing 150 mM NaCl, 0.05% Tween20 and 1% final DMSO. Tested peptides at 14 different concentrations up to 1 μM were added to 0.01 nM human or mouse FAP. The peptides were incubated for 24 hours together with the protein before adding the substrate 50 μM Z-Gly-Pro-AMC (I-1145 from Bachem). Samples were then incubated at 22-24° C. for 4 h before reading the fluorescence at excitation wavelength of 380 nm and emission wavelength of 460 nm using the Tecan Infinite® M1000 PRO. The high control (100% activity) was not containing any peptide, and an internal potent peptide was added at 10 μM concentration for the low control (100% inhibition). IC50 values were calculated by curve fitting using an in-house developed software (Novartis Helios software application) using the method described by Fomenko et al., 2006 (regression algorithms for nonlinear dose-response curve fitting). Following normalization of activity values for the wells to % inhibition (% inhibition=[(high control-sample)/(high control-low control)]x 100). IC50 fitting was carried out from the duplicated points.

In experiment [2] the target is T1, mouse FAP. The experiment in a line: Enzymatic FAP competition assay (Z-Gly-Pro-AMC fluorescence), mouse FAP. To be noted: read-out: m. FAP, Enz., IC50. In kind it is biochemical. How it is done: as §1

The Kd is a measure of binding affinity in units of concentration. Higher therefore signals a looser complex. By IC50 is commonly meant the concentration needed to halve the response being measured.

In the case of `CCCCC[C@@H]1NC(=O)[C@H](Cc2ccc(O)cc2)NC(=O)[C@H](Cc2ccccc2)N(C)C(=O)CNC(=O)[C@H](CC(=O)O)NC(=O)[C@H]2CCCN2C(=O)[C@H](CC(=O)O)NC(=O)[C@H](Cc2ccc(O)cc2)NC(=O)CNC(=O)[C@H](Cc2c[nH]c3ccccc23)NC1=O` [Example A18, Asp-Gly-NMePhe-Tyr-Ahp-Trp-Gly-Tyr-Asp-D-Pro] (cyclo([Ahp(2)]WGYD[dP]DG[NMeF]Y)), binding on mouse FAP [1] was put at a Kd of 0.222 nM. Besides, the IC50 at human FAP came out at 0.27 nM; on mouse FAP [2], 0.71 nM.
The corresponding values for `CCCCC[C@@H]1NC(=O)[C@H](Cc2ccc(O)cc2)NC(=O)[C@H](Cc2ccccc2)N(C)C(=O)CNC(=O)[C@H](CO)NC(=O)[C@H]2CCCN2C(=O)[C@H](CC(=O)O)NC(=O)[C@H](Cc2ccc(O)cc2)NC(=O)CNC(=O)[C@H](Cc2c[nH]c3ccccc23)NC1=O` [Example A19, Ser-Gly-NMePhe-Tyr-Ahp-Trp-Gly-Tyr-Asp-D-Pro] (cyclo([Ahp(2)]WGYD[dP]SG[NMeF]Y)) are 0.26 nM, 0.145 nM and 0.66 nM.
On the same counts, the results for `CCCCC[C@@H]1NC(=O)[C@H](Cc2ccc(O)cc2)NC(=O)[C@H](Cc2ccccc2)NC(=O)[C@H](CCC(=O)O)NC(=O)[C@H](CCCCN)NC(=O)[C@H]2CCCN2C(=O)[C@H](CC(=O)O)NC(=O)[C@H](Cc2ccc(O)cc2)NC(=O)CNC(=O)[C@H](Cc2c[nH]c3ccccc23)NC1=O` [Example A20, Lys-Glu-Phe-Tyr-Ahp-Trp-Gly-Tyr-Asp-D-Pro] (cyclo([Ahp(2)]WGYD[dP]KEFY)) are 8.7 nM, 2.6 nM and 8.7 nM.
The corresponding values for `CCCCC[C@@H]1NC(=O)[C@H](Cc2ccc(O)cc2)NC(=O)[C@H](Cc2ccccc2)N(C)C(=O)[C@H](CCC(=O)O)NC(=O)[C@H](CCCCN)NC(=O)[C@H]2CCCN2C(=O)[C@H](CC(=O)O)NC(=O)[C@H](Cc2ccc(O)cc2)NC(=O)CNC(=O)[C@H](Cc2c[nH]c3ccccc23)NC1=O` [Example A21, Lys-Glu-NMePhe-Tyr-Ahp-Trp-Gly-Tyr-Asp-D-Pro, TFA salt] (cyclo([Ahp(2)]WGYD[dP]KE[NMeF]Y)) are 15 nM, 5.7 nM and 14 nM.
In turn, `CCCCC[C@@H]1NC(=O)[C@H](Cc2ccc(O)cc2)NC(=O)[C@H](Cc2ccccc2)NC(=O)CNC(=O)[C@H](CCCCN)NC(=O)[C@H]2CCCN2C(=O)[C@H](CC(=O)O)NC(=O)[C@H](Cc2ccc(O)cc2)NC(=O)CNC(=O)[C@H](Cc2c[nH]c3ccccc23)NC1=O` [Example A22, Lys-Gly-Phe-Tyr-Ahp-Trp-Gly-Tyr-Asp-D-Pro, TFA salt] (cyclo([Ahp(2)]WGYD[dP]KGFY)) came in with a Kd at mouse FAP [1] of 0.87 nM. Besides, the IC50 was 0.33 nM on human FAP and 0.67 nM at mouse FAP [2].
On the same counts, the results for `CCCCC[C@@H]1NC(=O)[C@H](Cc2ccc(O)cc2)NC(=O)[C@H](Cc2ccccc2)N(C)C(=O)CNC(=O)[C@H](CCCCN)NC(=O)[C@H]2CCCN2C(=O)[C@H](CC(=O)O)NC(=O)[C@H](Cc2ccc(O)cc2)NC(=O)CNC(=O)[C@H](Cc2c[nH]c3c(F)cccc23)NC1=O` [Example A23, Lys-Gly-NMePhe-Tyr-Ahp-W(7F)-Gly-Tyr-Asp-D-Pro, TFA salt] (cyclo([Ahp(2)][Trp(7-F)]GYD[dP]KG[NMeF]Y)) are 0.45 nM, 0.111 nM and 0.48 nM.
On the same counts, the results for `CCCCC[C@@H]1NC(=O)[C@H](Cc2ccc(O)cc2)NC(=O)[C@H](Cc2ccccc2)N(C)C(=O)CNC(=O)[C@H](CCCCN)NC(=O)[C@H]2CCCN2C(=O)[C@H](CC(=O)O)NC(=O)[C@H](Cc2ccc(O)cc2)NC(=O)CNC(=O)[C@H](Cc2c[nH]c3cc(O)ccc23)NC1=O` [Example A24, Lys-Gly-NMePhe-Tyr-Ahp-W(6OH)-Gly-Tyr-Asp-D-Pro, TFA salt] (cyclo([Ahp(2)][Trp(6-OH)]GYD[dP]KG[NMeF]Y)) are 0.85 nM, 0.37 nM and 1.3 nM.
`CCCCC[C@@H]1NC(=O)[C@H](Cc2ccc(O)cc2)NC(=O)[C@H](Cc2ccccc2)N(C)C(=O)CNC(=O)[C@H](CCCCN)NC(=O)[C@H]2CCCN2C(=O)[C@H](CC(=O)O)NC(=O)[C@H](Cc2ccc(O)cc2)NC(=O)CNC(=O)[C@H](Cc2c[nH]c3c(Cl)cccc23)NC1=O` [Example A25, Lys-Gly-NMePhe-Tyr-Ahp-W(7Cl)-Gly-Tyr-Asp-D-Pro, TFA salt] (cyclo([Ahp(2)][Trp(7-Cl)]GYD[dP]KG[NMeF]Y)): the affinity on mouse FAP [1], expressed as Kd, was 0.47 nM. Further, the results for the half-maximal inhibitory concentration (IC50) on human FAP and at mouse FAP [2] were 0.209 nM and 0.86 nM, respectively.
